The target of experiment [1] is T1, DLK (Homo sapiens, UniProt Q12852).
T1 construct: 10 nM DLK, catalytic domain, Carna Biosiences; purchased Carna Biosciences ('Carna Biosiences' [sic])
T1 sequence (Q12852 125-366 limits assumed): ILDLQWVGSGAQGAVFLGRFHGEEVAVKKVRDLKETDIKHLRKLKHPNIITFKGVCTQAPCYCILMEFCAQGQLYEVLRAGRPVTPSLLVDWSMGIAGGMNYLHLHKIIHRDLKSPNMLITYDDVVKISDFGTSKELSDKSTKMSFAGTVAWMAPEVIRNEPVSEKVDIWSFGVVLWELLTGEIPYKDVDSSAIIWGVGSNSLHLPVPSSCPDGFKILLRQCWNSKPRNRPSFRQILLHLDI
The experiment is described as follows: DLK biochemical assay (TR-FRET, MKK7 phosphorylation). In a few lines: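 DLK catalytic domain (10 nM) phosphorylates His-MKK7 (15 nM) at 60 μM ATP for 90 min at RT in pH 7.5 Hepes buffer (final concentrations). Phospho-T275/S277 is detected by TR-FRET (Eu anti-phospho donor, XL665 anti-His acceptor) after 16 h at 37° C (1536 format) or 4° C (384 format).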
In general terms: In TR-FRET formats the signal depends on donor and acceptor labels being close together.

In experiment [2] the target is T2, LZK (Homo sapiens, UniProt O43283).
T2 construct: 10 nM LZK, catalytic domain, Carna Biosiences in assay buffer; purchased Carna Biosciences ('Carna Biosiences' [sic])
T2 sequence (O43283 168-409 limits assumed): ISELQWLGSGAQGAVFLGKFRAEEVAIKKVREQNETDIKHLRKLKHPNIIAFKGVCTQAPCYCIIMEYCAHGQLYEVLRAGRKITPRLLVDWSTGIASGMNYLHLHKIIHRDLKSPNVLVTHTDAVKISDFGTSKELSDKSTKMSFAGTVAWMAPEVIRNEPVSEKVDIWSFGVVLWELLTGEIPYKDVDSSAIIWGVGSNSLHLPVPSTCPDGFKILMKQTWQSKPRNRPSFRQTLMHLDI
The experiment is described as follows: LZK biochemical assay (TR-FRET, MKK7 phosphorylation). The method, boiled down:
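LZK catalytic domain (10 nM) phosphorylates His-MKK7 (15 nM) with 15 µM ATP, all final, for 90 min at RT in HEPES buffer pH 7.5 with MgCl2. Phospho-T275/S277 detected by TR-FRET (Eu anti-phospho donor, XL665 anti-His acceptor) after 16 h at 32 °C in EDTA stop buffer. Inhibition lowers the 665/Eu ratio.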

Regarding `CC[C@@H](c1ccccc1)n1cc(-c2cc(-c3cnn(CCO)c3)c3nc(N)nn3c2)cn1` [II-97, 2-[4-(2-Amino-6-{1-[(1S)-1-phenylpropyl]-1H-pyrazol-4-yl}[1,2,4]triazolo[1,5-a]pyridin-8-yl)-1H-pyrazol-1-yl]ethan-1-ol], the IC50 (commonly the concentration that gives 50% inhibition) worked out at 8.1 nM in experiment [1] and 380 nM in experiment [2].

On to `CC[C@@H](c1ccc(F)cc1)n1cc(-c2cc(-c3cnn(CC(F)(F)F)c3)c3nc(N)nn3c2)cn1` [II-98, 6-{1-[(1S)-1-(4-fluorophenyl)propyl]-1H-pyrazol-4-yl}-8-[1-(2,2,2-trifluoroethyl)-1H-pyrazol-4-yl][1,2,4]triazolo[1,5-a]pyridin-2-amine], for which the IC50 in experiment [1] was 14 nM; in experiment [2], 56 nM.

Take `Nc1nc2c(-c3cnn(CC(F)(F)F)c3)cc(-c3cnn(C4CCN(C5COC5)CC4)c3)cn2n1` [II-120, 6-{1-[1-(Oxetan-3-yl)piperidin-4-yl]-1H-pyrazol-4-yl}-8-[1-(2,2,2-trifluoroethyl)-1H-pyrazol-4-yl][1,2,4]triazolo[1,5-a]pyridin-2-amine]: the IC50 amounted to 240 nM in experiment [1] and 140 nM in experiment [2].

Consider `Nc1nc2cc(-c3cnn(Cc4ccccc4)c3)cc(-c3cnn(C(F)F)c3)n2n1` [II-121, 7-(1-Benzyl-1H-pyrazol-4-yl)-5-[1-(difluoromethyl)-1H-pyrazol-4-yl][1,2,4]triazolo[1,5-a]pyridin-2-amine], for which the figures for the IC50 in experiment [1] and in experiment [2] were 32 nM and 150 nM, respectively.

For the compound `CC(n1cc(-c2cc(-c3cnn(Cc4ccccc4)c3)cc3nc(N)nn23)cn1)C(F)(F)F` (stereo not drawn) [II-122], the results for the IC50 in experiment [1] and in experiment [2] were 39 nM and 37 nM, respectively.

Consider `N#CCC(n1cc(-c2cc(-c3cnn(Cc4ccccc4)c3)cc3nc(N)nn23)cn1)C(F)(F)F` (stereo not drawn) [II-123], for which the IC50 in experiment [1] amounted to 53 nM; in experiment [2], 150 nM.

On to `Nc1nc2cc(-c3cnn(Cc4ccccc4)c3)cc(-c3cnn(CC4CC4(F)F)c3)n2n1` (stereo not drawn) [II-124], for which the figures for the concentration for half-maximal inhibition (IC50) in experiment [1] and in experiment [2] were 7.1 nM and 73 nM, respectively.

Take `Nc1nc2cc(-c3cnn(Cc4ccccc4)c3)cc(-c3cnn(C4CCOC4)c3)n2n1` (stereo not drawn) [II-125]: the IC50 was determined as 17 nM in experiment [1] and 160 nM in experiment [2].

Turning to `Nc1nc2cc(-c3cnn(Cc4ccccc4)c3)cc(-c3cnn(C4CCOCC4)c3)n2n1` [II-126, 7-(1-Benzyl-1H-pyrazol-4-yl)-5-[1-(tetrahydro-2H-pyran-4-yl)-1H-pyrazol-4-yl][1,2,4]triazolo[1,5-a]pyridin-2-amine], the IC50 came to 60 nM in experiment [1] and 220 nM in experiment [2].

Turning to `CC[C@@H](c1ccccc1)n1cc(-c2cc(-c3cnn(CC(F)(F)F)c3)n3nc(N)nc3c2)cn1` [II-127, 7-{1-[(1S)-1-Phenylpropyl]-1H-pyrazol-4-yl}-5-[1-(2,2,2-trifluoroethyl)-1H-pyrazol-4-yl][1,2,4]triazolo[1,5-a]pyridin-2-amine], the IC50 came to 8.4 nM in experiment [1] and 99 nM in experiment [2].

`CC[C@@H](c1ccc(F)cc1)n1cc(-c2cc(-c3cnn(CC(F)(F)F)c3)n3nc(N)nc3c2)cn1` [II-128]: the IC50 in experiment [1] is 15 nM; in experiment [2], 160 nM.

Consider `CCC(c1ccc(C(F)(F)F)cc1)n1cc(-c2cc(-c3cnn(CC(F)(F)F)c3)n3nc(N)nc3c2)cn1` (stereo not drawn) [II-129], for which the IC50 in experiment [1] was 69 nM; in experiment [2], 170 nM.

As for `CCC(c1ccc(C(F)(F)F)cc1)n1cc(-c2cc(-c3cnn(C4CCCC4)c3)n3nc(N)nc3c2)cn1` (stereo not drawn) [II-132], the values for the IC50 in experiment [1] and in experiment [2] were 71 nM and 120 nM, respectively.

With `Nc1nc2cc(-c3cnn(Cc4ccnc(OC(F)(F)F)c4)c3)cc(-c3cnn(CC(F)(F)F)c3)n2n1` [II-135, 5-[1-(2,2,2-Trifluoroethyl)-1H-pyrazol-4-yl]-7-(1-{[2-(trifluoromethoxy)pyridin-4-yl]methyl}-1H-pyrazol-4-yl)[1,2,4]triazolo[1,5-a]pyridin-2-amine], the IC50 turned out to be 19 nM in experiment [1] and 70 nM in experiment [2].

Regarding `COc1cc(C(C(C)C)n2cc(-c3cc(-c4cnn(CC(F)(F)F)c4)n4nc(N)nc4c3)cn2)ccn1` (stereo not drawn) [II-136], the values for the IC50 in experiment [1] and in experiment [2] were 3.4 nM and 48 nM, respectively.

Regarding `COc1cc([C@H](C(C)C)n2cc(-c3cc(-c4cnn(CC(F)(F)F)c4)n4nc(N)nc4c3)cn2)ccn1` [II-138], the IC50 worked out at 1.7 nM in experiment [1] and 29 nM in experiment [2].

For the compound `CC(C)C(c1ccc(C(F)(F)F)nc1)n1cc(-c2cc(-c3cnn(CC(F)(F)F)c3)n3nc(N)nc3c2)cn1` (stereo not drawn) [II-139], the values for the IC50 in experiment [1] and in experiment [2] were 11 nM and 27 nM, respectively.

With `CC(C)[C@@H](c1ccc(C(F)(F)F)nc1)n1cc(-c2cc(-c3cnn(CC(F)(F)F)c3)n3nc(N)nc3c2)cn1` [II-140], the half-inhibitory concentration (IC50) in experiment [1] is 3 nM; in experiment [2], 13 nM.

`CC(C)C(c1ccc(C(F)(F)F)nc1)n1cc(-c2cc(-c3cnn(CC4CC4(F)F)c3)n3nc(N)nc3c2)cn1` (stereo not drawn) [II-142]: the IC50 in experiment [1] amounted to 8.4 nM; in experiment [2] it was 12 nM.

Take `CC(C)C(c1ccc(C(F)(F)F)nc1)n1cc(-c2cc(-c3cnn(C4CCCC4)c3)n3nc(N)nc3c2)cn1` (stereo not drawn) [II-143]: the IC50 in experiment [1] worked out at 2.5 nM; in experiment [2] it was 15 nM.

For `CC(C)[C@@H](c1ccc(C(F)(F)F)nc1)n1cc(-c2cc(-c3cnn(C4CCCC4)c3)n3nc(N)nc3c2)cn1` [II-145], the IC50 was 3.3 nM in experiment [1] and 9.9 nM in experiment [2].

As to `Nc1nc2cc(-c3cnn(C(c4ccccc4)C4CCOCC4)c3)cc(-c3cnn(CC(F)(F)F)c3)n2n1` (stereo not drawn) [II-146], the IC50 in experiment [1] worked out at 3.6 nM; in experiment [2] it was 200 nM.

Regarding `Nc1nc2cc(-c3cnn(C(c4ccc(C(F)(F)F)nc4)C4CCOCC4)c3)cc(-c3cnn(CC(F)(F)F)c3)n2n1` (stereo not drawn) [II-149], the half-maximal inhibitory concentration (IC50) in experiment [1] came to 2.9 nM; in experiment [2], 4.7 nM.

For `Nc1nc2cc(-c3cnn(C(c4ccccc4)C4CCNCC4)c3)cc(-c3cnn(CC(F)(F)F)c3)n2n1` (stereo not drawn) [II-152], the half-maximal inhibitory concentration (IC50) worked out at 1.4 nM in experiment [1] and 16 nM in experiment [2].

With `Nc1nc2c(-c3ccc(=O)n(C(F)F)c3)cc(-c3cnn(C(c4ccc(C(F)(F)F)nc4)C4CCOCC4)c3)cn2n1` (stereo not drawn) [II-153], the IC50 in experiment [1] was 1.4 nM; in experiment [2], 3.5 nM.

For the compound `Nc1nc2c(-c3ccc(=O)n(CC(F)F)c3)cc(-c3cnn(C(c4ccc(C(F)(F)F)nc4)C4CCOCC4)c3)cn2n1` (stereo not drawn) [II-156], the results for the half-inhibitory concentration (IC50) in experiment [1] and in experiment [2] were 1.1 nM and 3.3 nM, respectively.

For the compound `CC[C@@H](c1ccc(C(F)(F)F)nc1)n1cc(-c2cc(-c3ccc(=O)n(CC(F)(F)F)c3)c3nc(N)nn3c2)cn1` [II-159, 5-[2-Amino-6-(1-{(1S)-1-[6-(trifluoromethyl)pyridin-3-yl]propyl}-1H-pyrazol-4-yl)[1,2,4]triazolo[1,5-a]pyridin-8-yl]-1-(2,2,2-trifluoroethyl)pyridin-2(1H)-one], the IC50 turned out to be 2.4 nM in experiment [1] and 6.2 nM in experiment [2].

Consider `Nc1nc2c(-c3ccc(=O)n(CC(F)(F)F)c3)cc(-c3cnn(C(c4ccc(C(F)(F)F)nc4)C4CCOCC4)c3)cn2n1` (stereo not drawn) [II-160], for which the IC50 in experiment [1] amounted to 1.5 nM; in experiment [2], 5.9 nM.

Regarding `Nc1nc2c(-c3ccc(=O)n(CC(F)(F)F)c3)cc(-c3cnn([C@H](c4ccc(C(F)(F)F)nc4)C4CCOCC4)c3)cn2n1` [II-162], the half-inhibitory concentration (IC50) in experiment [1] came out at 0.8 nM; in experiment [2], 2 nM.

Take `CCC(c1ccc(OC(F)(F)F)nc1)n1cc(-c2cc(-c3ccc(=O)n(CC(F)(F)F)c3)c3nc(N)nn3c2)cn1` (stereo not drawn) [II-163]: the IC50 in experiment [1] was 4.9 nM; in experiment [2], 25 nM.

For the compound `Nc1nc2c(-c3cn(CC(F)(F)F)c(=O)cn3)cc(-c3cnn(C(c4ccc(C(F)(F)F)nc4)C4CCOCC4)c3)cn2n1` (stereo not drawn) [II-166], the 50% inhibitory concentration (IC50) turned out to be 4 nM in experiment [1] and 27 nM in experiment [2].

`CCC(c1ccc(C(F)(F)F)nc1)n1cc(-c2cc(-c3ccn(C)c(=O)c3)c3nc(N)nn3c2)cn1` (stereo not drawn) [II-169]: the results for the 50% inhibitory concentration (IC50) in experiment [1] and in experiment [2] were 20 nM and 60 nM, respectively.

On to `Nc1nc2c(-c3ccn(CC(F)F)c(=O)c3)cc(-c3cnn(C(c4ccc(C(F)(F)F)nc4)C4CCOCC4)c3)cn2n1` (stereo not drawn) [II-172], for which the IC50 turned out to be 2.2 nM in experiment [1] and 11 nM in experiment [2].

Regarding `Nc1nc2c(-c3ccn(CC(F)(F)F)c(=O)c3)cc(-c3cnn(C(c4ccc(C(F)(F)F)nc4)C4CCOCC4)c3)cn2n1` (stereo not drawn) [II-175], the IC50 was determined as 2.7 nM in experiment [1] and 13 nM in experiment [2].

As to `CC[C@@H](c1ccccc1)n1cc(-c2cc(-c3ccc(=O)[nH]c3)n3nc(N)nc3c2)cn1` [II-178, 5-(2-Amino-7-{1-[(1S)-1-phenylpropyl]-1H-pyrazol-4-yl}[1,2,4]triazolo[1,5-a]pyridin-5-yl)pyridin-2(1H)-one], the 50% inhibitory concentration (IC50) in experiment [1] stood at 15 nM; in experiment [2] it was 74 nM.

As for `CCC(c1ccc(C(F)(F)F)nc1)n1cc(-c2cc(-c3ccc(=O)n(C(F)F)c3)n3nc(N)nc3c2)cn1` (stereo not drawn) [II-179], the IC50 in experiment [1] was found to be 12 nM; in experiment [2] it was 8 nM.

The record behind these values is patent US20230086702A1, “SUBSTITUTED 2-AMINO-PYRAZOLYL-[1,2,4]TRIAZOLO[1,5A]PYRIDINE DERIVATIVES AND USE THEREOF” (The Johns Hopkins University, priority 2019, published 2023).
